Test results as given in ChEMBL document CHEMBL1201862, “PubChem BioAssay data set” (2004).
“And” between values parts separate entries of the source, which are not always exact repeats. Equal values may be shown once. Values belong to the compound of their own block, whether it stands above or below them. The source made the active and inactive calls.

Legend:
[1] = target: Caspase-6 (Homo sapiens, UniProt P55212); experiment: inhibition of CASP6 peptide cleavage – biochemical, VEID-R110 fluorescence, cherry-pick, dose response (AID 720632)
Caspase-6, sequence (P55212 24-179 limits assumed): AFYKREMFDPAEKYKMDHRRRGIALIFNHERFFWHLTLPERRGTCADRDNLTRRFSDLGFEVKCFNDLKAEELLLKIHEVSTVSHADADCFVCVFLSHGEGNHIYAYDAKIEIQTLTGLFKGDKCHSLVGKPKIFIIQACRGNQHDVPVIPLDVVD
Caspase-6, sequence (P55212 194-293 limits assumed): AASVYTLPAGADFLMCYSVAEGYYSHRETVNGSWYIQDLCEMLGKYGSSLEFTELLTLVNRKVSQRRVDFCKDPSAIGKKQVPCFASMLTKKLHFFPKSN

[2] = HIV-1 AD8 envelope cell-cell fusion blockers – cherry-pick, dose response (AID 652062); format: functional, cell-based;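 also: luciferase signal from cell-cell fusion driven by HIV-1 clade B AD8 Env; potency is for inhibitors of fusion seen as a drop in luminescence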
[3] = system: HEK293; experiment: NOD2 signaling inhibitors in MDP-stimulated cells, cell-based, uHTS, luminescence (AID 2001); format: functional; conditions: Homo sapiens
[4] = viability loss in CEM21 cells – cell-based, plate reader, dry powder, cytotoxicity control, dose response (AID 687026); format: functional
[5] = system: HEK293; experiment: cells; format: functional, cell-based; conditions: Homo sapiens
[6] = inhibition of Env-driven cell fusion – HIV entry, plate reader, dry powder, dose response (AID 687023); format: functional, cell-based
[7] = target: T1, Estrogen receptor (Homo sapiens, UniProt P03372);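 also: potency for inhibiting coactivator peptide recruitment to the receptor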
T1 sequence (P03372 whole entry): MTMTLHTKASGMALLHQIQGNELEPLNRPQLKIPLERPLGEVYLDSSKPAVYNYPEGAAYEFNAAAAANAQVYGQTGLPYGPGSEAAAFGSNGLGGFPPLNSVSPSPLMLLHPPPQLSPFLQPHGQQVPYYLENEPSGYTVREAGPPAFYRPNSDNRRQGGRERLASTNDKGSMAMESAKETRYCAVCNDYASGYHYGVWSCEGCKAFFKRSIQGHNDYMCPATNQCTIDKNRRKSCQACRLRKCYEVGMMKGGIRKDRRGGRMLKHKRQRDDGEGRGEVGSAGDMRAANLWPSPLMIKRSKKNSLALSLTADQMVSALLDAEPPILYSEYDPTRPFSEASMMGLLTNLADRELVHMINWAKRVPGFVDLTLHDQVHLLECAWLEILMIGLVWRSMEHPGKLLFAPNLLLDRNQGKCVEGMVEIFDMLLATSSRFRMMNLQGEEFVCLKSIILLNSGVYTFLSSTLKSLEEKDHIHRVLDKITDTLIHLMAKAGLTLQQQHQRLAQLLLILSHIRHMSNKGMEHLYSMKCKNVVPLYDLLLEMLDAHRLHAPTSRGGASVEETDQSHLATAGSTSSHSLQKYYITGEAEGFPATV

[8] = system: HEK293; experiment: cells; format: functional, cell-based; conditions: Homo sapiens; remark: listed apart in the source
[9] = off-target signal loss in HeLa-CEM21 co-culture – HeLa F-luc CTL cells, cherry-picked, counter-screen for HIV-1 Env fusion inhibitor project, dose response (AID 652040); format: functional, cell-based;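 also: potency for signal decrease marking cytotoxic or nonspecific inhibition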
[10] = system: HEK293; experiment: cells; format: functional, cell-based; conditions: Homo sapiens; remark: listed apart in the source
[11] = target: Nucleotide-binding oligomerization domain-containing protein 2 (Homo sapiens, UniProt Q9HC29); experiment: inhibition of NOD2-driven NF-kB reporter – cell-based, luminescence, uHTS, HEK293 (AID 1566); format: functional
Nucleotide-binding oligomerization domain-containing protein 2, sequence (Q9HC29 whole entry, the tested form may be a part): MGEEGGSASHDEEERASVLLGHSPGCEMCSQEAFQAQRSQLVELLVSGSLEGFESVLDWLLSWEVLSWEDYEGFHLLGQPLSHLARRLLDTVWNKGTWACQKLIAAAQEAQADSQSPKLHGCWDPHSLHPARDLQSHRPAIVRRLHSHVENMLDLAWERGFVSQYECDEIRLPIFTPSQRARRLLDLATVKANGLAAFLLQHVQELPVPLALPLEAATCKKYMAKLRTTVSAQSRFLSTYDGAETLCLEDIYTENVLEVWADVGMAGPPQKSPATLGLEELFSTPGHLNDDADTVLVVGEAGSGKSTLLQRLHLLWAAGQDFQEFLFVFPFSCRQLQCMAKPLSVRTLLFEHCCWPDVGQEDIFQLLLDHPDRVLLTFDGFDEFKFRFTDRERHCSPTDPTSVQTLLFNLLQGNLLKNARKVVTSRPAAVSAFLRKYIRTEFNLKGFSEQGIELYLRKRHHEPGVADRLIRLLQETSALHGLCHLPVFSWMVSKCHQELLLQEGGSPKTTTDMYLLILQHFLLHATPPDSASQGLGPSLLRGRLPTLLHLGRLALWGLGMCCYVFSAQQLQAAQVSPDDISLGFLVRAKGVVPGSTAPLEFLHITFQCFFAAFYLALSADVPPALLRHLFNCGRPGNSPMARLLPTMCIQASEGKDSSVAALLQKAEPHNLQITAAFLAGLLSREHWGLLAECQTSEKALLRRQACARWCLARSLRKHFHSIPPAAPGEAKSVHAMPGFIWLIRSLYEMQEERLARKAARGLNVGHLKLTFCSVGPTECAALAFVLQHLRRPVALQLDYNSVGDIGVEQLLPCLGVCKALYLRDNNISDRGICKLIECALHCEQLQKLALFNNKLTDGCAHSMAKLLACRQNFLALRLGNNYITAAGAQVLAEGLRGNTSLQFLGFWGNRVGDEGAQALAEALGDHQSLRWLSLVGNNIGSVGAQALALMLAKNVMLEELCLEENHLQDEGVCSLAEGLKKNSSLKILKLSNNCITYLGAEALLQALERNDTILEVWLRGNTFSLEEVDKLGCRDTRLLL

[12] = blockers of HIV-1 ZM109 envelope-driven cell-cell fusion – HeLa effector, CEM target cells, luciferase, cherry-pick, dose response (AID 652058); format: functional, cell-based;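 also: luciferase signal from HIV-1 Env mediated cell-cell fusion of effector and target cells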
[13] = system: HEK293; experiment: inhibition of NOD1-driven NF-kB reporter – cell-based, luminescence, uHTS, primary screen (AID 1578); format: functional; conditions: Homo sapiens
[14] = blockers of HIV-1 envelope-mediated cell-cell fusion – cherry-pick, dose response (AID 652057); format: functional, cell-based
[15] = target: NAD-dependent protein deacylase sirtuin-5, mitochondrial (Homo sapiens, UniProt Q9NXA8); experiment: sirtuin-5 deacylation blockers, concentration series – biochemical, fluorescence imaging, cherry-pick, set 5, dose response (AID 720591);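 also: desuccinylation of succinyl peptide AMC substrate read as fluorescence after trypsin release; potency of inhibitors that lower fluorescence and may act on trypsin instead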
NAD-dependent protein deacylase sirtuin-5, mitochondrial, sequence (Q9NXA8 whole entry): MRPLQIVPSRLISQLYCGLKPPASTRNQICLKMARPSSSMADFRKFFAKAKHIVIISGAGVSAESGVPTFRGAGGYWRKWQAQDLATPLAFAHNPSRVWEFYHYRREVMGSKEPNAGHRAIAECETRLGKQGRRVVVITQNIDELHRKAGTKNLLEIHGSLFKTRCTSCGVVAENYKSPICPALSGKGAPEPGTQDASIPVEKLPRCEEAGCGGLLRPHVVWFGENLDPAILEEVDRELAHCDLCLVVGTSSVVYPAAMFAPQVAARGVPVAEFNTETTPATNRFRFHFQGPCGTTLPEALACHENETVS

[16] = HEK-293T viability loss after treatment – luminescence, T-cell screen hits, cytotoxicity control for TCR NF-kB inhibitor project, dose response (AID 489026); format: functional, cell-based;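 also: cells exposed to compound about 14 hours before the viability readout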
[17] = toxicity toward HEK293 cells – cell-based, dry powder samples, cytotoxicity control, dose response (AID 720567); format: functional
[18] = antileishmanial activity on axenic amastigotes – plate reader, cherry pick, dose response (AID 651891); format: functional, cell-based; conditions: Leishmania donovani
[19] = T. cruzi growth inhibition in host cells, dose response, cell-based, plate reader, dry powder, set 2 (AID 652275); format: functional
[20] = Inhibition of Plasmodium falciparum NF54 Measured in Cell-Based System Using Plate Reader - 2138-11_Inhibitor_Dose_CherryPick_Activity.; format: functional
[21] = Inhibition of T. cruzi Tulahuen strain amastigotes in L-6 muscle cells Measured in Cell-Based and Microorganism Combination System Using Plate Reader - 2138-03_Inhibitor_Dose_CherryPick_Activity.; format: functional; conditions: Rattus norvegicus, L6
[22] = L6 myocyte viability loss – cell-based, plate reader, cherry-pick, cytotoxicity control, dose response (AID 651896); format: functional
[23] = anti-trypanosomal activity in BESM host cells – imaging, CA-I/72 strain, bovine embryo skeletal muscle, dry powder, dose response (AID 651885); format: functional, cell-based
[24] = Trypanosoma cruzi replication inhibitors in host cells – cell-based, plate reader, dry powder samples, dose response (AID 651845); format: functional
[25] = intracellular Trypanosoma cruzi inhibitors in host cells – cell-based, plate reader, cherry-pick samples, set 3, dose response (AID 651818); format: functional;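 also: compounds incubated with infected cells for about four days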
[26] = African trypanosome bloodstream form growth inhibition – STIB900 strain, plate reader, cherry pick, dose response (AID 651893); format: functional, cell-based, Trypanosoma brucei rhodesiense; conditions: Trypanosoma brucei
[27] = OVCAR-3 cell viability loss – plate reader, dry powder samples, PAX8 inhibitor project, dose response (AID 743044); format: functional, cell-based
[28] = toxicity toward immortalized ovarian surface epithelium – cell-based, plate reader, dry powder samples, cytotoxicity control for PAX8 inhibitor project, dose response (AID 743045); format: functional
[29] = target: Paired box protein Pax-8 (Homo sapiens, UniProt Q06710); experiment: PAX8 transcriptional activity inhibition in RMG-I – RMG-I cells, luciferase, cherry-pick, dose response (AID 687027); format: functional, cell-based;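 also: luciferase reporter driven by Pax8 target thyroperoxidase promoter measured by SteadyGlo luminescence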
Paired box protein Pax-8, sequence (Q06710 whole entry): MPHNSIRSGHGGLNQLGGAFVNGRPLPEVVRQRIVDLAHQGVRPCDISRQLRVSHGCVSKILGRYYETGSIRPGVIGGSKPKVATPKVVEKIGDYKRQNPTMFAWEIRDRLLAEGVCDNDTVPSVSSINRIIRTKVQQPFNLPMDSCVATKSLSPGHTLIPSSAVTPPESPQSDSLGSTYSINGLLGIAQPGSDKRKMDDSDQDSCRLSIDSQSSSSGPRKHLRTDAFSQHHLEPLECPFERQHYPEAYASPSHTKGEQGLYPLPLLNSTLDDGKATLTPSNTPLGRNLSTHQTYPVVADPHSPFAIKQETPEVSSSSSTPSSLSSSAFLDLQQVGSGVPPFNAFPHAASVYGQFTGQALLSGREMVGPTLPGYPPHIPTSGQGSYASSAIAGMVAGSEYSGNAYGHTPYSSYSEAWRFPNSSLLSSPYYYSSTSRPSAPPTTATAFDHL

[30] = OVCAR8 cell viability loss – plate reader, dry powder samples, PAX8 project, dose response (AID 743197); format: functional, cell-based; conditions: OVCAR-8
[31] = IGROV1 cell killing – plate reader, dry powder samples, PAX8 inhibitor project, dose response (AID 743043); format: functional, cell-based; conditions: IGROV-1
[32] = A549 cell cytotoxicity, dose response, cytotoxicity control, plate reader, cherry-pick, antagonist series (AID 743412); format: functional, cell-based
[33] = target: T2, Protein skinhead-1 (Caenorhabditis elegans, UniProt P34707); format: functional
T2 sequence (P34707 whole entry): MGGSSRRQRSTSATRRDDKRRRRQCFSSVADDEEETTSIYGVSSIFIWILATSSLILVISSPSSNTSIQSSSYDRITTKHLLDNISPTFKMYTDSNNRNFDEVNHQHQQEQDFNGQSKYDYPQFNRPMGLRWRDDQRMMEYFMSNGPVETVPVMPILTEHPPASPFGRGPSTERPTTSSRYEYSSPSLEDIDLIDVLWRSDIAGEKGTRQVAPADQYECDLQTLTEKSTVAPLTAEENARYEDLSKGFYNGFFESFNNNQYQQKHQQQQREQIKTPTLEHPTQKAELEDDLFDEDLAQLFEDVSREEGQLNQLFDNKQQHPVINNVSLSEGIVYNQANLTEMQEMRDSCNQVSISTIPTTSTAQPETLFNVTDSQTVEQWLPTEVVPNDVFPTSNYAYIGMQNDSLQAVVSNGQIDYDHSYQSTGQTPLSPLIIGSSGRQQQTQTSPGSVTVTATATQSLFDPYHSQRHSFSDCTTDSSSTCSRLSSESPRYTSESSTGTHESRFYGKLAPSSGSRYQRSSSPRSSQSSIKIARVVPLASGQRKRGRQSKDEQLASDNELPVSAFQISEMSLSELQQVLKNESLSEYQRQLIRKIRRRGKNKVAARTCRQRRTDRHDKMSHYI

[34] = blockers of bursicon-stimulated LGR2 cAMP reporter – cell-based, HEK293, CRE-luciferase reporter, cherry pick, set 2, dose response (AID 743343); format: functional;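 also: transfected cells were stimulated with diluted bursicon conditioned medium after compound addition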
[35] = viability loss in HepG2 hepatoma cells – cell-based, ATP luminescence, cherry-pick, activator set 2, cytotoxicity control, dose response (AID 1053143); format: functional
[36] = toxicity toward HepG2 liver cells – cell-based, plate reader, cherry-pick, antagonist series, cytotoxicity control, dose response (AID 743416); format: functional
[37] = Luminescence-based cell-based high throughput dose response assay to identify activators of the DAF-12 from the parasite S. stercoralis (ssDAF-12).; format: functional
[38] = blockade of melanocortin 4 receptor signaling – cell-based, plate reader, cherry pick, counter-screen for LGR2 antagonist project, dose response (AID 743444); format: functional;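 also: transfected HEK 293 cells stimulated with alpha-MSH peptide; potency of inhibitors of the alpha-MSH evoked signal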

AC50 [1]: 13.5 µM (active)
Compound: O=C(OC1CCOC1=O)c1ccc(Cl)c(S(=O)(=O)N2CCOCC2)c1 (stereo not drawn)

Compound: O=C(CCCn1c(=S)[nH]c2cc3c(cc2c1=O)OCO3)N1CCN(c2ccc(Cl)cc2)CC1
AC50 [2]: 7.01 µM (active)
IC50 [3]: 6.5 µM (active)
AC50 [4]: > 70 µM (inactive)
IC50 [5]: 16.4 µM (active)
AC50 [6]: 5.71 µM (active) and 5.84 µM (active)
IC50 [7]: 12.6 µM (active)
IC50 [8]: 8.75 µM (active)
AC50 [9]: 44.3 µM (active)
IC50 [10]: > 20 µM (inactive)
EC50 [11]: 3.83 µM (active)
AC50 [12]: 5.45 µM (active)
EC50 [13]: 7.73 µM (active)
AC50 [14]: 2.75 µM (active)

Compound: COc1ccc(-n2c(/C=C/c3ccc4c(c3)OCO4)nc3ccccc3c2=O)cc1
AC50 [15]: > 30 µM (inactive)

Compound: CCOC(=O)COc1cccc2c(=O)n(CC(=O)NCc3ccccc3)ccc12
IC50 [16]: > 80 µM (inactive)
AC50 [17]: > 30 µM (inactive)

Compound: C[C@H]1CN([C@@H](C)CO)C(=O)c2cccc(NC(=O)c3ccncc3)c2O[C@@H]1CN(C)Cc1ccccc1
IC50 [18]: 84.4 µM (inactive)
AC50 [19]: 0.0123 µM (active)
IC50 [20]: 4.83 µM (inactive)
IC50 [21]: 4.83 µM (inactive)
IC50 [22]: > 100 µM (inactive)
IC50 [23]: 0.00942 µM (active)
AC50 [24]: 0.0123 µM (active)
AC50 [25]: 0.08 µM (active)
IC50 [26]: 35.1 µM (inactive)

Compound: Cc1ccc(S(=O)(=O)Nc2ccc3c(c2)C(=O)N([C@H](C)CO)C[C@H](C)[C@@H](CN(C)Cc2ccc(C(F)(F)F)cc2)OCCCC[C@H](C)O3)cc1
AC50 [27]: 10.3 µM (active)
AC50 [28]: 18.1 µM (active)
AC50 [29]: 4.62 µM (active)
AC50 [30]: 16.6 µM (active)
AC50 [31]: 15 µM (active)

Compound: Cc1cc(-c2nc3cc(F)ccc3s2)ccc1N
AC50 [32]: 21.4 µM (active)
IC50 [33]: 19.1 µM (active)
AC50 [34]: 3.96 µM (active)
AC50 [35]: 0.55 µM (active)
AC50 [36]: 0.0824 µM (active)
IC50 [37]: > 67.6 µM (inactive)
AC50 [38]: 3.8 µM (active)
